Reference: patent publication US20260234157A1, “COMPOUND AND METHOD FOR TARGETED DEGRADATION OF ANDROGEN RECEPTOR” (Gan & Lee Pharmaceuticals Co., Ltd., priority 2023, published 2026)
Numbering of substitutions follows the chain as printed. Like-named read-outs stand apart in the source and are kept apart here.

Key:
Assay type in all cases: cell-based
[1] = biological target: T1, AR protein (Homo sapiens, UniProt P10275, T878A); test: Degradation of AR protein in LNCaP cells (Western blot); conditions: for inhibition at 0.01 µM: read-out: Degradation rates of the AR protein in LNCaP cells, 10 nM (%); for inhibition at 0.1 µM: read-out: Degradation rates of the AR protein in LNCaP cells, 100 nM (%)
T1 construct: degradation activity of the compounds disclosed in the present disclosure on AR protein in LNCaP cells; host or cells: LNCaP FGC
T1 sequence (P10275 1-920 T878A): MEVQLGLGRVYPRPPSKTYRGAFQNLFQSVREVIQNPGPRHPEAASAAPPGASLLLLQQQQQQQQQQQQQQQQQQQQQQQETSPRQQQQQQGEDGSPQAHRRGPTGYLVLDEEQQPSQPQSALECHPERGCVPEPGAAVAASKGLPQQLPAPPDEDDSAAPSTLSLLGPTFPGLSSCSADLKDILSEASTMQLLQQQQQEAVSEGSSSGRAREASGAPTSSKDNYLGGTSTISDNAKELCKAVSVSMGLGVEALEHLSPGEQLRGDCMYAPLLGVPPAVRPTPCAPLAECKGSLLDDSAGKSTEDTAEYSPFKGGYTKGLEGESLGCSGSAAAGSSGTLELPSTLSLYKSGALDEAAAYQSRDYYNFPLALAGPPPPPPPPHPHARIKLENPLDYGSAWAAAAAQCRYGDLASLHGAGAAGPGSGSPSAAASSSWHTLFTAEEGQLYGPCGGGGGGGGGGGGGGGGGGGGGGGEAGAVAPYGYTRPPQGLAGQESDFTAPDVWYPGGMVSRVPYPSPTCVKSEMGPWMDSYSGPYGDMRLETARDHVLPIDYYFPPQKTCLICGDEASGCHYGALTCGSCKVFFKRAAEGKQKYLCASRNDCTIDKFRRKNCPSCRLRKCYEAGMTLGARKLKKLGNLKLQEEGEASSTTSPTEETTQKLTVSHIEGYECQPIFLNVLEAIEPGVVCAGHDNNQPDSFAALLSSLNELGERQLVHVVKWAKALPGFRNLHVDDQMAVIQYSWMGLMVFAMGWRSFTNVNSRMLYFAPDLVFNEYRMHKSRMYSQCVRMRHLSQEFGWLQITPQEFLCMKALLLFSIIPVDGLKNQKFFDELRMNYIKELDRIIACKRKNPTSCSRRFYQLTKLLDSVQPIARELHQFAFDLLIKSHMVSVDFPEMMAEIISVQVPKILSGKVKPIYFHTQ
Method: The degradation activity of the compounds disclosed in the present disclosure on AR protein in LNCaP cells (cell source: ATCC)
(§1) Corresponding solvent controls were also set and cultured for 8 hours. After 8 hours of cultivation, the culture medium was removed and the cells were washed with PBS. RIPA lysis buffer containing 1% Protease Inhibitor Cocktail was added, and the total protein extract was obtained by lysis and centrifugation. The protein concentration in the extract was detected by BCA method. Protein electrophoresis was performed using SDS-PAGE, followed by transfer of the protein onto a PVDF (Millipore Sigma catalog No. PSRP010R5) membrane at 100V constant voltage for 60 minutes. The PVDF membrane was then placed in a 1×TBST solution with 5% milk and blocked at room temperature for 1 hour. […] The primary antibody solution was discarded and the PVDF membrane was washed three times with 1×TBST for 5 minutes/time. […] The secondary antibody solution was discarded and the PVDF membrane was washed three times with 1×TBST for 5 minutes/time. Western blot imaging was performed by using a dual color infrared laser imaging system (Licor catalog No. Odyssey CLX). Bands were analyzed in grayscale using Image Studio software. For each sample, GAPDH protein bands were detected as internal reference. The degradation rates of the AR protein for the compounds and the positive control sample were calculated based on grayscale of the protein bands.

[2] = biological target: T2, AR protein (Homo sapiens, UniProt P10275); test: Degradation of AR protein in VCaP cells (Western blot); conditions: 8 hours; for inhibition at 0.01 µM: compound at 10 nM, read-out: Degradation rate of the AR protein in VCaP cells, 10 nM (%); for inhibition at 0.1 µM: compound at 100 nM, read-out: Degradation rate of the AR protein in VCaP cells, 100 nM (%)
T2 construct: degradation activity of the compounds disclosed in the present disclosure on AR protein in VCaP cells; host or cells: VCaP
T2 sequence (P10275 1-920): T1 sequence (P10275 1-920 T878A) with A878T
Method: The degradation activity of the compounds disclosed in the present disclosure on AR protein in VCaP cells (cell source: ATCC)
as §1

[3] = test system: LNCaP FGC cells; test: Inhibition of proliferation of LNCaP cells (WST-8)
Method: The cells were cultured in a cell culture incubator with 5% CO2 at 37° C. overnight. […] On the sixth day, 96 well plates were taken out, and 20 μL of WST-8 (Beytime, C0040) reagent was added to each well.

[4] = LNCaP cells, compound 10 nM, 8 hours, Western blot grayscale, GAPDH internal reference
[5] = LNCaP cells, compound 100 nM, 8 hours, Western blot grayscale, GAPDH internal reference
[6] = Homo sapiens, LNCaP, 96 h, LNCaP FGC cells, 96 hours, WST-8 absorbance at 450 nm, read-out: IC50 for inhibiting the proliferation of LNCaP cells
[7] = Homo sapiens, LNCaP, 96 h, read-out: IC50 for inhibiting the proliferation of LNCaP cells, LNCaP FGC cells, 96 hours, WST-8 absorbance at 450 nm

| Structure (SMILES) | inhibition at 0.01 µM [1, 4] [%] | inhibition at 0.1 µM [1, 5] [%] | inhibition at 0.01 µM [2] [%] | inhibition at 0.1 µM [2] [%] | IC50 [3, 6] [µM] | inhibition at 0.01 µM ([1]; LNCaP, 8 h) [%] | inhibition at 0.1 µM ([1]; LNCaP, 8 h) [%] | IC50 [3, 7] [µM] | IC50 ([3]; LNCaP FGC cells, 96 hours, WST-8 absorbance at 450 nm, read-out: IC50 for inhibiting the proliferation of LNCaP cells) [µM] |
| --- | --- | --- | --- | --- | --- | --- | --- | --- | --- |
| COc1cc(O[C@H]2C(C)(C)[C@H](NC(=O)c3ccc(N4CCC(CN5CCC6(CC5)COc5c6ccc6c5CN(C5CCC(=O)NC5=O)C6=O)(OC)CC4)cc3)C2(C)C)ccc1C#N (stereo partly drawn) [Compound 217] | -2 | 48 | 49 | 83 | 0.005 |  |  |  |  |
| N#Cc1ccc(O[C@H]2CC[C@H](NC(=O)c3ccc(N4CC[C@H](CN5CCC6(CC5)COc5c6ccc6c5CN(C5CCC(=O)NC5=O)C6=O)[C@H](F)C4)nn3)CC2)cc1Cl (stereo partly drawn) [Compound 226] | 52 | 34 | 74 | 83 | 0.0025 |  |  |  |  |
| N#Cc1ccc(O[C@H]2CC[C@H](NC(=O)c3ccc(N4CCC5(CCC(N6CCC7(CC6)COc6c(ccc8c6C(=O)N(C6CCC(=O)NC6=O)C8)C7)CC5)CC4)nn3)CC2)cc1Cl (stereo partly drawn) [Compound 190] | 53 | 75 |  |  | 5.15 |  |  |  |  |
| COc1cc(O[C@H]2C(C)(C)[C@H](NC(=O)c3ccc(N4CCC(F)(CN5CCC6(CC5)COc5c6ccc6c5CN(C5CCC(=O)NC5=O)C6=O)CC4)cc3)C2(C)C)ccc1C#N (stereo partly drawn) [Compound 223] | 27 | 20 | -3 | 52 | 0.009 |  |  |  |  |
| N#Cc1ccc(O[C@H]2CC[C@H](NC(=O)c3ccc(N4CCC5(CCC(C(=O)N6CCC7(CC6)COc6c7ccc7c6CN(C6CCC(=O)NC6=O)C7=O)CC5)CC4)nn3)CC2)cc1Cl (stereo partly drawn) [Compound 253] | 37 | 41 | 10 | 55 | 0.55 |  |  |  |  |
| COCC1(CN2CCC3(CC2)COc2c3ccc3c2CN(C2CCC(=O)NC2=O)C3=O)CCN(c2ccc(C(=O)N[C@H]3CC[C@H](Oc4ccc(C#N)c(Cl)c4)CC3)nn2)CC1 (stereo partly drawn) [Compound 258] | 71 | 67 | 60 | 84 | 0.017 |  |  |  |  |
| N#Cc1ccc(O[C@H]2CC[C@H](NC(=O)c3ccc(C#CC4CC5(C4)CC(N4CCC6(CC4)COc4c6ccc6c4CN(C4CCC(=O)NC4=O)C6=O)C5)nn3)CC2)cc1Cl (stereo partly drawn) [Compound 252] | 56 | 70 | 80 | 87 | 6.24 |  |  |  |  |
| N#Cc1ccc(O[C@H]2CC[C@H](NC(=O)c3ccc(N4CCC(N5CCC6(CC5)COc5c(ccc7c5C(=O)N(C5CCC(=O)NC5=O)C7)C6)CC4)nn3)CC2)cc1Cl (stereo partly drawn) [Compound 189] |  |  |  |  |  | 42 | 57 | 26.9 |  |
| COc1cc(O[C@H]2CC[C@H](NC(=O)c3ccc(N4CCC(CN5CC6(CCc7cc8c(cc7O6)C(=O)N(C6CCC(=O)NC6=O)C8=O)C5)(OC)CC4)cc3)CC2)ccc1C#N (stereo partly drawn) [Compound 285] |  |  | -5 | 66 |  | 40 | 54 | 0.84 |  |
| N#Cc1ccc(O[C@H]2CC[C@H](NC(=O)c3ccc(N4CCC5(CC4)CC(N4CCC6(CC4)COc4c(ccc7c4C(=O)N(C4CCC(=O)NC4=O)C7)C6)C5)nn3)CC2)cc1Cl (stereo partly drawn) [Compound 188] | 68 | 66 | 63 | 79 | 3.72 |  |  |  |  |
| N#Cc1ccc(O[C@H]2CC[C@H](NC(=O)c3ccc(N4CCC5(CC4)COc4c5ccc5c4CN(C4CCC(=O)NC4=O)C5=O)nn3)CC2)cc1Cl (stereo partly drawn) [Compound 200] | 44 | 27 | 25 | 57 | 91 |  |  |  |  |
| COc1cc(O[C@H]2C(C)(C)[C@H](NC(=O)c3ccc(N4CCC(CN5CCC6(CCc7ccc8c(c7O6)CN(C6CCC(=O)NC6=O)C8=O)CC5)CC4)cc3)C2(C)C)ccc1C#N (stereo partly drawn) [Compound 298] | 27 | 55 |  |  | 12.1 |  |  |  |  |
| CC1(C)C(=O)N(c2ccc(C#N)c(C(F)(F)F)c2)C(=S)N1c1ccc(C(=O)N2CCC3(CCC(N4CCC5(CCc6cc7c(cc6O5)C(=O)N(C5CCC(=O)NC5=O)C7=O)CC4)CC3)C2)c(F)c1 (stereo not drawn) [Compound 129] |  |  |  |  | 3.63 |  |  |  |  |
| CC1(CN2CCC3(CCc4cc5c(cc4O3)C(=O)N(C3CCC(=O)NC3=O)C5=O)CC2)CCN(C(=O)c2ccc(N3C(=S)N(c4ccc(C#N)c(C(F)(F)F)c4)C(=O)C3(C)C)cc2F)CC1 (stereo not drawn) [Compound 108] |  |  |  |  |  |  |  | 10.4 |  |
| N#Cc1ccc(O[C@H]2CC[C@H](NC(=O)c3ccc(N4CCC(F)(CN5CCC6(CCc7ccc8c(c7O6)CN(C6CCC(=O)NC6=O)C8=O)CC5)CC4)nn3)CC2)cc1Cl (stereo partly drawn) [Compound 132] |  |  |  |  |  |  |  |  | 4.35 |
| N#Cc1ccc(O[C@H]2CC[C@H](NC(=O)c3ccc(N4CCC(F)(CN5CCC6(CC5)COc5c6ccc6c5CN(C5CCC(=O)NC5=O)C6=O)CC4)nc3)CC2)cc1Cl (stereo partly drawn) [Compound 216] |  |  | 54 | 80 | 0.006 |  |  |  |  |
